Read-outs that look alike come from different tables or passages of the source.
Experiments:
HCC patients [1] = conditions: phase III versus sorafenib; cited from earlier work
HCC patients [2] = conditions: single arm phase II; cited from earlier work
HCC patients [3] = conditions: phase II, cited from earlier work
HCC patients [4] = conditions: phase III BRISK-PS, secondary treatment; cited from earlier work
HCC patients [5] = conditions: phase III, first line; cited from earlier work
advanced HCC patients = conditions: 28 patients; cited from earlier work
pancreatic cancer cells = conditions: cited from earlier work
NMDAR subunits = conditions: cited from earlier work
MHCC97L cells = assay: MTT cell viability assay and drug interaction analysis; type: cell-based, human; conditions: single drug

CCN(CC)CCNC(=O)c1c(C)[nH]c(/C=C2\C(=O)Nc3ccc(F)cc32)c1C [sunitinib]
trial outcome (HCC patients [1]): terminated early due to increased side effects and futility concerns

Cc1ccc(F)c(NC(=O)Nc2ccc(-c3cccc4[nH]nc(N)c34)cc2)c1 [linifanib]
safety profile (HCC patients [2]): acceptable safety profile

Cc1cc2c(F)c(Oc3ncnn4cc(OC[C@@H](C)O)c(C)c34)ccc2[nH]1 [brivanib]
median overall survival (HCC patients [3]; first line): 10 months
median overall survival (HCC patients [3]; second line): 9.5 months
median length of overall survival (HCC patients [4]): 9.4 months
Median survival (HCC patients [5]): 9.5 months
discontinuation rate (HCC patients [5]): 43%

CO[C@H]1C[C@@H]2CC[C@@H](C)[C@@](O)(O2)C(=O)C(=O)N2CCCC[C@H]2C(=O)O[C@H]([C@H](C)C[C@@H]2CC[C@@H](OCCO)[C@H](OC)C2)CC(=O)[C@H](C)/C=C(\C)[C@@H](O)[C@@H](OC)C(=O)[C@H](C)C[C@H](C)/C=C/C=C/C=C/1C [everolimus]
median progression free survival (advanced HCC patients): 3.8 months
overall survival (advanced HCC patients): 8.4 months

C[C@]12N[C@H](Cc3ccccc31)c1ccccc12 [MK-801, Dizocilpine (MK-801)]
tumor growth and invasiveness of pancreatic cancer cells (pancreatic cancer cells): reduced tumor growth and invasiveness
NMDAR subunit selectivity (NMDAR subunits): blocks all NMDAR subunits in a non-selective manner
toxicity / safety as therapeutic agent (NMDAR subunits): poses high toxicity and is less tolerated
HCC growth, NMDAR inhibitor alone (MHCC97L cells): did not significantly suppress
